Reference: patent US20190209539A1, “THIOHYDANTOIN ANDROGEN RECEPTOR ANTAGONISTS FOR THE TREATMENT OF CANCER” (Janssen Pharmaceutica NV, priority 2016, published 2019)
Where a chain is given by its changes, count along the chain named. Each block holds one compound with its values, some of them ahead of it.

Experiments:
[1] = biological target: T1, F876L mutant Androgen Receptor (AR-F876L) (Homo sapiens, UniProt P10275, F877L); test: LNCaP-AR-F876L AG: ARE luciferase reporter assay, agonist mode; format: cell-based
T1 construct: expressed in transfected cells; host or cells: LNCaP F876L cells with ARE firefly luciferase lentiviral construct
T1 sequence (P10275 1-920 F877L): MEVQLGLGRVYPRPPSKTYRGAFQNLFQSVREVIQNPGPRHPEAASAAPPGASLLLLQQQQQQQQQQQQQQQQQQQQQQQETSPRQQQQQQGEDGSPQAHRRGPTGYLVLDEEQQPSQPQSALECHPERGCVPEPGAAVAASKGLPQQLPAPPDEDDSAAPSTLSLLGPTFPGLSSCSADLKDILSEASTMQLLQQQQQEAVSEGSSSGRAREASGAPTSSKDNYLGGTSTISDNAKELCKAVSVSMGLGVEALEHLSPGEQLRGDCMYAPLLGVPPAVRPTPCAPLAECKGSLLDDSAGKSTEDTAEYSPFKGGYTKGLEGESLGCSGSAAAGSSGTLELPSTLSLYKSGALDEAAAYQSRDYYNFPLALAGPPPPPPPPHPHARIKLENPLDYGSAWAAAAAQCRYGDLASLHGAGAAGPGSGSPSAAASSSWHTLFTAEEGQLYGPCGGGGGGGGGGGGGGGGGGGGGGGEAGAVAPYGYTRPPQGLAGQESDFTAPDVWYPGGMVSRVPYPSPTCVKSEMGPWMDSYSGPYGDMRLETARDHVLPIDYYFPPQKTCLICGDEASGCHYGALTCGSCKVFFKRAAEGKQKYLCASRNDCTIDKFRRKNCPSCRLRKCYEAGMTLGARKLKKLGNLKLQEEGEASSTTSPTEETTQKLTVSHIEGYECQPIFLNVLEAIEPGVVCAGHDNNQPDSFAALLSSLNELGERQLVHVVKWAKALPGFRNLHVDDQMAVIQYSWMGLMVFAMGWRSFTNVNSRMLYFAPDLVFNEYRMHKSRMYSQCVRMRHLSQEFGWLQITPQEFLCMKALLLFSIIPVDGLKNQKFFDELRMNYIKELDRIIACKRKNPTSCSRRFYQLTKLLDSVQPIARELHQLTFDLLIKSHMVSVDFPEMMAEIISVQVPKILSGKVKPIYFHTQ
Procedure: (§1) A stable pooled-population cell line was generated using puromycin (Life Technologies) selection at 1:10,000 v/v. The protocol below was used for both cell lines and for testing of the compounds of Formula (I) of the present invention.
(§2) LNCaP cells were grown to about 80% confluence, media removed and cells rinsed in Hank's balanced salt solution prior to separation from the plate with 0.05% Trypsin EDTA. Cells were lifted and trypsin negated in complete CSS (charcoal stripped serum) culture media. […] Agonist challenge was at 400 pM for WT assay and 600 pM for F876L assay. Plates containing cells and compounds herein were incubated for a further 20-24 hours at 37° C., 5% CO2 before addition of 40 μL/well of Steady-Glo Luciferase Assay System Reagent (Promega# E2520). After 1 h, plates were read for luminescence on a BMG Pherastar.
(§3) EC/IC50 calculations were achieved utilizing calculated RLU data and data fitting macros. Data were fit using least-squares methods to the following formula: […]
(§4) As used herein: pIC50 is defined as—Log10(IC50 expressed in [Molar]). pEC50 is defined as—Log10(EC50 expressed in [Molar]). […] LNCaP-AR-wt ANT refers to the reporter assay using LNCaP cells stably transfected with the Androgen Response Element Firefly Luciferase lentiviral construct and wild-type Androgen Receptor (AR-wt) in Antagonist mode. LNCaP-AR-wt AG refers to the reporter assay using LNCaP cells stably transfected with the Androgen Response Element Firefly Luciferase lentiviral construct and wild-type Androgen Receptor (AR-wt) in Agonist mode. LNCaP-AR-F876L ANT refers to the reporter assay using LNCaP cells stably transfected with the Androgen Response Element Firefly Luciferase lentiviral construct and F876L mutant Androgen Receptor (AR-F876L) in Antagonist mode. LNCaP-AR-F876L AG refers to the reporter assay using LNCaP cells stably transfected with the Androgen Response Element Firefly Luciferase lentiviral construct and F876L mutant Androgen Receptor (AR-F876L) in Agonist mode.

[2] = system: androgen dependent signaling (androgen sensitive organs, ASO); test: Hershberger Assay; format: in vivo, Sprague-Dawley rats; conditions: p≤0.05, in all 5 organs
Procedure: The effect of AR antagonists on androgen dependent signaling in vivo was assessed using the Hershberger assay. In this assay, peripubertal castrated male Sprague-Dawley rats were administered AR antagonists described herein in the presence of testosterone (0.4 mg/kg testosterone propionate) and the weights of androgen dependent organs measured. Dosing was continued for 10 days and measurements taken 24 h after the last dose. The extent of antagonism of AR and consequent inhibition of organ growth was evaluated by comparison to the castration control. Compounds of Formula (I) were dosed orally QD and an endpoint assessment made by change in weight of 5 androgen sensitive organs (ASO): Paired Cowper's Glands (CG), Seminal Vesicles with Fluids and Coagulating Glands (SVCG), Glans Penis (GP), Ventral Prostate (VP) and Levator Ani-Bulbocavernosus Complex (LABC)). According to assay guidelines, statistically significant suppression of ASO is required in 2 of 5 organs for a compound to be classified as an anti-androgen (analysis was performed by t-test/Mann-Whitney).
Compounds defined herein were administered at the indicated dose (mg/kg) and flutamide (FT), positive control, at 3 mg/kg. […]

[3] = biological target: T2, wild-type Androgen Receptor (AR-wt) (Homo sapiens, UniProt P10275); test: LNCaP-AR-wt AG: ARE luciferase reporter assay, agonist mode; format: cell-based
T2 construct: expressed in transfected cells; host or cells: LNCaP AR (cs) cells with ARE firefly luciferase lentiviral construct
T2 sequence (P10275 1-920): T1 sequence (P10275 1-920 F877L) with L877F
Procedure: as §1, §2, §3, §4

[4] = biological target: T2, wild-type Androgen Receptor (AR-wt); test: LNCaP-AR-wt ANT: ARE luciferase reporter assay, antagonist mode; format: cell-based
Procedure: as §1, §2, §3
(§5) As used herein: pIC50 is defined as—Log10(IC50 expressed in [Molar]). pEC50 is defined as—Log10(EC50 expressed in [Molar]). […] LNCaP-AR-wt ANT refers to the reporter assay using LNCaP cells stably transfected with the Androgen Response Element Firefly Luciferase lentiviral construct and wild-type Androgen Receptor (AR-wt) in Antagonist mode. […]

[5] = biological target: T1, F876L mutant Androgen Receptor (AR-F876L); test: LNCaP-AR-F876L ANT: ARE luciferase reporter assay, antagonist mode; format: cell-based
Procedure: as §1, §2, §3, §5

T877A AR mutant = biological target: T3, T877A AR mutant (Homo sapiens, UniProt P10275, T878A); conditions: cited from earlier work
T3 sequence (P10275 1-920 T878A): T1 sequence (P10275 1-920 F877L) with L877F, T878A

[6] = maximum % stimulation (agonist response), % of 1 μM R-1881 max

Compound: CN1CCN(CCCc2ccc(N3C(=S)N(c4cnc(C#N)c(C(F)(F)F)c4)C(=O)C34CCC4)cc2)CC1 [Cpd 43, 5-[8-[4-[3-(4-methylpiperazin-1-yl)propyl]phenyl]-5-oxo-7-thioxo-6,8-diazaspiro[3.4]octan-6-yl]-3-(trifluoromethyl)pyridine-2-carbonitrile]
- LNCaP-AR-F876L AG MAX % Stim [1, 6]: 0.4%
- reduction in ASO versus TP control [2]: significant reduction
- LNCaP-AR-wt AG MAX % Stim [3, 6]: 0.7%

- EC50 ([1]; agonist mode, read-out: LNCaP-AR-F876L AG pEC50 (converted)): > 15100 nM
- Emax ([1]; maximum % stimulation (agonist response), % of 1 μM R-1881 max, read-out: LNCaP-AR-F876L AG MAX % Stim): 0.8%
- IC50 ([4]; antagonist mode, 400 pM R-1881 challenge, read-out: LNCaP-AR-wt ANT pIC50 (converted)): 417 nM
- Emax ([4]; maximum % inhibition of R1881 control response over tested concentration range, read-out: LNCaP-AR-wt ANT MAX % Inh): 97.8%
- IC50 ([5]; antagonist mode, 600 pM R-1881 challenge, read-out: LNCaP-AR-F876L ANT pIC50 (converted)): 389 nM
- Emax ([5]; maximum % inhibition of R1881 control response over tested concentration range, read-out: LNCaP-AR-F876L ANT MAX % Inh): 98.9%
- EC50 ([3]; agonist mode, read-out: LNCaP-AR-wt AG pEC50 (converted)): > 15100 nM
- Emax ([3]; maximum % stimulation (agonist response), % of 1 μM R-1881 max, read-out: LNCaP-AR-wt AG MAX % Stim): 1.2%
Compound: CNC(=O)c1ccc(N2C(=S)N(c3cnc(C#N)c(C)c3)C(=O)C23CCCC3)cc1F [Cpd 65, 4-[7-(6-cyano-5-methyl-3-pyridyl)-6-oxo-8-thioxo-7,9-diazaspiro[4.4]nonan-9-yl]-2-fluoro-N-methyl-benzamide]

Compound: N#Cc1ncc(N2C(=O)C3(CCC3)N(c3ccc(Oc4ccccn4)cc3)C2=S)cc1C(F)(F)F [Cpd 103, 5-[5-oxo-8-[4-(2-pyridyloxy)phenyl]-7-thioxo-6,8-diazaspiro[3.4]octan-6-yl]-3-(trifluoromethyl)pyridine-2-carbonitrile]
- LNCaP-AR-F876L AG MAX % Stim [1, 6]: 2.0%
- LNCaP-AR-wt AG MAX % Stim [3, 6]: 4.0%

Compound: C#CCNC(=O)c1ccc(N2C(=S)N(c3cnc(C#N)c(C(F)(F)F)c3)C(=O)C23CCC3)cc1F [Cpd 111, 4-[6-[6-cyano-5-(trifluoromethyl)-3-pyridyl]-5-oxo-7-thioxo-6,8-diazaspiro[3.4]octan-8-yl]-2-fluoro-N-prop-2-ynyl-benzamide]
- LNCaP-AR-F876L AG MAX % Stim [1, 6]: 2.7%
- LNCaP-AR-wt AG MAX % Stim [3, 6]: 0.5%

Compound: Cc1cncc(-c2ccc(N3C(=S)N(c4cnc(C#N)c(C)c4)C(=O)C34CCC4)cc2)c1 [Cpd 114, 3-methyl-5-[8-[4-(5-methyl-3-pyridyl)phenyl]-5-oxo-7-thioxo-6,8-diazaspiro[3.4]octan-6-yl]pyridine-2-carbonitrile]
- LNCaP-AR-F876L AG MAX % Stim [1, 6]: 3.3%
- LNCaP-AR-wt AG MAX % Stim [3, 6]: 0.7%

Compound: CC(C)(O)C(=O)Nc1ccc([N+](=O)[O-])c(C(F)(F)F)c1 [hydroxyflutamide]
- activity in T877A AR mutant (T877A AR mutant): act as AR agonists
